Here are results for ten compounds from patent US12448388B2, “PRMT5 inhibitors and uses thereof” (Gilead Sciences, Inc., priority 2023, dated 2025).

As a reminder, the GI50 is the concentration at which growth is held to half of that of the control. A lower GI50 goes with more potent growth inhibition. By half-life is commonly meant how long it takes for the measured level to halve. A word on the IC50: it is the concentration at which inhibition is half-maximal.

SMILES strings stand for the structures. Like-named read-outs stand apart in the source and are kept apart here.

The subject of series [1] is SW780 (bladder, urothelial carcinoma; MTAP-Deleted). Briefly: In vitro cell viability assay (CellTiter-Glo, 9 days), SW780. The settings on record: Homo sapiens, SW780, 216 h, 9-day treatment. The format is cell-based. Here is the method:
Some Compounds of the Disclosure were tested in Calu-6 (Vendor: ATCC; Cat #HTB-56; Description: lung, adenocarcinoma), LU99 (Vendor: JCRB; Cat #JCRB0080; Description: lung, giant cell carcinoma), SW780 (Vendor: ATCC; Cat #CRL-2169; Description: bladder, urothelial carcinoma), and BxPC-3 (Vendor: ATCC; Cat #CRL-1687; Description: pancreas, adenocarcinoma) cellular viability assays according to the general protocol. Seeded cells into 96-well plate and incubated overnight. Seeded an additional 10 wells per cell line in an additional 96-well plate for assessing Time Zero luminescence and incubated overnight. To treatment plates, added compounds into each well using Tecan D300e dispenser (nine three-fold dilutions starting at […]) and incubated for 9 days. Time Zero (no compound treatment, luminescence assessed on day 1) and 9-day treatment (luminescence assessed on day 10) plates were assessed using the same CellTiter-Glo® substrate protocol. Thawed CellTiter-Glo® Buffer and lyophilized CellTiter-Glo® substrate and equilibrated to room temperature prior to use. Transferred 100 ml CellTiter-Glo® Buffer into amber bottle containing CellTiter-Glo® substrate to reconstitute the lyophilized enzyme/substrate mixture. For Time Zero and 9-day treatment plates, removed all plating media. Added 100 μl fresh media/well. Added 100 μl CellTiter-Glo® Reagent per well. Mixed contents for 10 min on an orbital shaker to lyse cells. Recorded luminescence with Perkin Elmer Envision 2105 machine. Analyzed the data with GraphPad software.
A general note: In ATP-based viability assays light output follows the ATP content of the culture.

The nature of series [2]: PK data (IV/PO) in Beagle dog. The settings on record: in vivo; for clearance: read-out: Observed CL (converted); for bioavailability: PO 0.5 mg/Kg; for Vd: read-out: Vss.
Another series addresses T1, hERG (Homo sapiens, UniProt Q12809).
T1 construct: host or cells: HEK293
Briefly: hERG assay (automated patch clamp, QPatch HT). It is filed as cell-based. As to conditions: human, HEK293 cells stably expressing hERG, * = accurate hERG measurement may be limited by compound solubility. Here is the method:
Cell lines and cell culture: The HEK293 cell line stably expressing the hERG ion channel was provided from Charles River laboratories. Cells were maintained in tissue culture incubators per Charles River Laboratories SOP. Stocks were maintained in cryogenic storage. HEK293 cells were stably transfected with hERG cDNA.
Automated Patch Clamp Procedures: In preparation for a recording session, intracellular solution was loaded into the intracellular compartments of the QPlate and cell suspension was pipetted into the extracellular compartments. After establishment of a whole-cell configuration, membrane currents were recorded using up to 48 parallel patch clamp amplifiers in the QPatch HT® system. The current records were sampled at 2000 Hz and low-pass Bessel filtered at 400 Hz.
Valid whole-cell recordings met the following criteria: • 1. Membrane resistance ≥200 MΩ. • 2. Leak current 25% channel current or subtracted.
hERG Test Procedures: Onset and block of hERG current was measured using a stimulus voltage pattern consisting of a 500 ms prepulse to −40 mV (leakage subtraction), a 2-second activating pulse to +40 mV followed by a 2-second test pulse to −40 mV. The pulse pattern was repeated continuously at 10 s intervals from a holding potential of −80 mV. Peak tail current was measured during the −40 mV test pulse. Leakage current was calculated from the current amplitude evoked by the −40 mV prepulse and subtracted from the total membrane current record.
Data Analysis: Data acquisition and analysis were performed using the QPatch Assay Software (Sophion Bioscience A/S, Denmark). Steady state was defined by the limiting constant rate of change with time (linear time dependence). The steady state before and after test article application were used to calculate the percentage of current inhibited at each concentration. Run down, a time-dependent reduction of current amplitude, may be compensated for in the QPatch Assay Software using standard system tools. Concentration-response data was fit to an equation of the following form: […]
Where [Test] is the concentration of test compound, IC50 is the concentration of the test compound producing half-maximal inhibition, N is the Hill coefficient and % Block is the percentage of current inhibited at each concentration of the test article. Nonlinear least squares fits will be solved with the Solver add-in for Excel 2000 or later (Microsoft, Redmond, WA).

T1 sequence (Q12809 whole entry): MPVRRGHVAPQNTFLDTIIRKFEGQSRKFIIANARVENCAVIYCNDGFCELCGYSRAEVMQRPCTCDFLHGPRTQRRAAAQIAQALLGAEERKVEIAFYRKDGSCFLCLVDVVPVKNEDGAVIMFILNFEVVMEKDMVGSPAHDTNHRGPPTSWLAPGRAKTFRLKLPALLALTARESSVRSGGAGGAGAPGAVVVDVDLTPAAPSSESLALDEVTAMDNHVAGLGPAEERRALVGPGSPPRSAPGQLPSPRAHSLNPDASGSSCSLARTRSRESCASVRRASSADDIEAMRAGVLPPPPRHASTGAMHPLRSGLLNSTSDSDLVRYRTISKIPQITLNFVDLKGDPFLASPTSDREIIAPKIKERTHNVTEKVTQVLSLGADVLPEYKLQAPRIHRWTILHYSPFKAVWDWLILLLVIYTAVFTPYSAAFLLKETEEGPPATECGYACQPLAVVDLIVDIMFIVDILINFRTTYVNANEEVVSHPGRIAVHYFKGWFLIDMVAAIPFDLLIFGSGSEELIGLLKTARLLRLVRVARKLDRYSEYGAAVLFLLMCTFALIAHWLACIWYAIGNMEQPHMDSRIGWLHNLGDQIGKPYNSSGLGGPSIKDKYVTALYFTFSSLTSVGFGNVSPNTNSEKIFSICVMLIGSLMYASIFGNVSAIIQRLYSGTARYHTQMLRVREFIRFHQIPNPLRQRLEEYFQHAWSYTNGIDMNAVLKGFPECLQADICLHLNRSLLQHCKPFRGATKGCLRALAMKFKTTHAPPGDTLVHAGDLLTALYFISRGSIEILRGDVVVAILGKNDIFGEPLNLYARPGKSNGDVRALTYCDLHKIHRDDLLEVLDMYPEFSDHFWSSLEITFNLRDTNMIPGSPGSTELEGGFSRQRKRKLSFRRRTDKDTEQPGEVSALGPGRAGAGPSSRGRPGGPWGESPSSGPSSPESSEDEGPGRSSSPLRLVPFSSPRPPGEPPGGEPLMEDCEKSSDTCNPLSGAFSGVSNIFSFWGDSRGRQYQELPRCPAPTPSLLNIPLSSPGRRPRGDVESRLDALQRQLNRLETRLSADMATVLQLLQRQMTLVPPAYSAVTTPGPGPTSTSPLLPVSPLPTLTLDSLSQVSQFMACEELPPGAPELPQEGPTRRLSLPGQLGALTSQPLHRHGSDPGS

`C[C@H]1CN(C(=O)c2cc3c(cc2F)nc(N)c2cncn23)[C@H]2c3ccc(C(F)(F)F)cc3C[C@H]2O1` (single isomer, unassigned) [Ff-81] showed a 50% growth inhibitory concentration (GI50) in series [1] of 25 nM. In addition, in series [2] (IV 0.5 mg/Kg), the half-life was 7.9 h and the clearance is 4.33 mL/min/kg. For the same compound, the bioavailability in series [2] came to 134%.

Take `C[C@@H]1CN(C(=O)c2cc3c(cc2F)nc(N)c2cncn23)[C@H]2c3ccc(OC(F)(F)F)cc3C[C@H]2O1` (single isomer, unassigned) [Ff-183]: the GI50 in series [1] is 19 nM.

In the case of `Nc1nc2cnc(C(=O)N3CCC[C@@H]4Oc5cc(C(F)(F)F)cc(F)c5[C@@H]43)cc2n2cncc12` (single isomer, unassigned) [Fg-53], the 50% growth inhibitory concentration (GI50) in series [1] was found to be 9 nM. In series [2] (IV 0.25 mg/Kg), the half-life was 3.8 h, the clearance was 6.33 mL/min/kg and the Vd was determined as 1.97 L/kg. Moreover, in series [2], the bioavailability turned out to be 73%.

With `Nc1nc2cnc(C(=O)N3CCC[C@@H]4Oc5cc(OC(F)(F)F)cc(F)c5[C@@H]43)cc2n2cncc12` (single isomer, unassigned) [Fg-55], the GI50 in series [1] stood at 23 nM. Further, in series [2] (IV 0.25 mg/Kg), the half-life was 6 h, the clearance is 4.33 mL/min/kg and the Vd is 1.8 L/kg.

Regarding `Nc1nc2cc(F)c(C(=O)N3CCC[C@@H]4Oc5cc(C(F)(F)F)ccc5[C@@H]43)cc2n2cncc12` [Ff-104, (4-amino-7-fluoroimidazo[1,5-a]quinoxalin-8-yl)((4aS,9bS)-7-(trifluoromethyl)-3,4,4a,9b-tetrahydrobenzofuro[3,2-b]pyridin-1(2H)-yl)methanone], the GI50 in series [1] was determined as 5 nM. In series [2] (IV 0.25 mg/Kg), the half-life was 3.9 h, the clearance was 6.5 mL/min/kg and the Vd turned out to be 1.78 L/kg. In series [2] (IV 0.5 mg/Kg), the half-life was 8.7 h, the clearance is 3.17 mL/min/kg and the Vd came out at 2 L/kg. For the same compound, the bioavailability in series [2] is 68%.

As to `Nc1nc2cnc(C(=O)N3CCC[C@@H]4Oc5cc(C(F)(F)F)ccc5[C@@H]43)cc2n2cncc12` [Ff-110, (4-aminoimidazo[1,5-a]pyrido[3,4-e]pyrazin-8-yl)((4aS,9bS)-7-(trifluoromethyl)-3,4,4a,9b-tetrahydrobenzofuro[3,2-b]pyridin-1(2H)-yl)methanone], halving of growth in series [1] (GI50) required 120 nM.

`Nc1nc2ccc(C(=O)N3CCC[C@@H]4Oc5cc(C(F)(F)F)ccc5[C@@H]43)cc2n2cncc12` [Ff-111, (4-aminoimidazo[1,5-a]quinoxalin-8-yl)((4aS,9bS)-7-(trifluoromethyl)-3,4,4a,9b-tetrahydrobenzofuro[3,2-b]pyridin-1(2H)-yl)methanone] gave a GI50 in series [1] of 11 nM.

Regarding `Cc1ncc2c(N)nc3cnc(C(=O)N4CCC[C@@H]5Oc6cc(OC(F)(F)F)ccc6[C@@H]54)cc3n12` [Ff-340, (4-amino-1-methylimidazo[1,5-a]pyrido[3,4-e]pyrazin-8-yl)((4aS,9bS)-7-(trifluoromethoxy)-3,4,4a,9b-tetrahydrobenzofuro[3,2-b]pyridin-1(2H)-yl)methanone], the GI50 in series [1] worked out at 23 nM.

As for `Nc1nc2cnc(C(=O)N3CCC[C@@H]4Oc5cc(OC(F)(F)F)ccc5[C@@H]43)cc2n2cncc12` [Ff-341, (4-aminoimidazo[1,5-a]pyrido[3,4-e]pyrazin-8-yl)((4aS,9bS)-7-(trifluoromethoxy)-3,4,4a,9b-tetrahydrobenzofuro[3,2-b]pyridin-1(2H)-yl)methanone], in series [1], the GI50 came out at 10 nM.

In series [1], `Nc1nc2cnc(C(=O)N3CC4(CC4)C[C@@H]4Oc5cc(C(F)(F)F)ccc5[C@@H]43)cc2n2cncc12` [Ff-648, (4-aminoimidazo[1,5-a]pyrido[3,4-e]pyrazin-8-yl)((4aS,9bS)-7-(trifluoromethyl)-4a,9b-dihydro-2H-spiro[benzofuro[3,2-b]pyridine-3,1′-cyclopropan]-1(4H)-yl)methanone] came in with a GI50 of 12 nM. Half-maximal inhibition against hERG (IC50) required 30000 nM.
